According to US20220273809A1, “AXL ANTIBODY-DRUG CONJUGATES FOR USE IN TREATING CANCER” (GENMAB A/S, priority 2019, published 2022):
Non-standard residues stand in square brackets, D forms with d. Residues, ends and D or L forms follow the SMILES beside them. *: point of attachment. Dolaproine = CO[C@@H]([C@@H]1CCCN1)[C@@H](C)C(=O)O; Dil = CC[C@H](C)[C@H](NC)[C@@H](CC(=O)O)OC; X1 = C[C@@H](N*)[C@@H](O)c1ccccc1; NMeV = CN[C@H](C(=O)O)C(C)C

Assays:
[1] = tested on: LCLC-103H cells; assay: Calreticulin surface expression in vitro (flow cytometry); format: cell-based, human; conditions: 48 h; for cell surface expression of calreticulin (MFI) compared to untreated cells: ADCs 2 μg/mL, MMAE 10 or 50 nM, paclitaxel 1 μM; for percentage of calreticulin positive cells: compared to untreated or isotype control ADC
Method: (§1) LCLC-103H or MDA-MB-231 cells were grown to 70% to 80% confluence in 6-well plates, washed with serum-free medium and incubated with IgG1-AXL-107-vcMMAE (2 μg/mL), free monomethyl auristatin E (MMAE, SAFC, cat.no SG10; 10 or 50 nM), paclitaxel (1 μM), or isotype control ADC (IgG1-b12-vcMMAE; 2 μg/mL) in serum-free medium (RPMI1640, Lonza BE17-603E) for 48 hours (LCLC-103H) or 72 hours (MDA-MB-231). After incubation, supernatant and cells were collected and washed in PBS/0.1% BSA/0.02% azide (FACS buffer). Cells were then incubated with a phycoerythrin (PE)-conjugated mouse anti-human calreticulin antibody (Enzo, Cat no. ADI-SPA-601PE-D, lot. 10021835) for 30 min at 4° C. in the dark. A PE-conjugated mouse isotype control antibody (Enzo, cat no. ADI-SAB-600PE-D, lot. 08071817) was included as a control. After washing with FACS buffer, cells were analyzed with flow cytometry in the presence of DAPI (BD; cat no. 564907, lot. 8012653) or TO-PRO-3 (Thermo Fisher, cat no. T3605, lot. 1976612). Calreticulin expression was determined as PE positive cells and the percentage of calreticulin positive cells over isotype control was obtained on DAPI or TO-PRO-3 negative cells.

[2] = tested on: MDA-MB-231 cells; assay: as above; format: cell-based, human; conditions: 72 h; for cell surface expression of calreticulin (MFI) compared to untreated cells: ADCs 2 μg/mL, MMAE 10 or 50 nM, paclitaxel 1 μM; for percentage of calreticulin positive cells: compared to untreated or isotype control ADC
Method: as §1

[3] = tested on: LCLC-103H cells; assay: Extracellular ATP release in vitro (CellTiterGlo); format: cell-based, human; conditions: 48 hr, 100% PBS; ADC 2 μg/mL, paclitaxel 1 μM, MMAE 10 or 50 nM
Method: (§2) LCLC-103H or MDA-MB-231 cells were seeded in quadruplicate at 25,000 cells per well for LCLC-103H cells or 125,000 cells per well for MDA-MB-231 cells in 24-well plates and grown 3 hours at 37° C. Subsequently, IgG1-AXL-107-vcMMAE (2 μg/mL), free monomethyl auristatin E (MMAE; 10 or 50 nM), paclitaxel (1 μM), or isotype control ADC (IgG1-b12-vcMMAE; 2 μg/mL) were added per well.
(§3) Plates were incubated for 48 hr at 37° C. and after incubation each well was washed with 200 μL PBS. After the final wash, PBS was replaced with 200 μL fresh 100% PBS or 70% PBS (hypotonic) for the indicated times, harvested and transferred to a 96-well plate, and then spun at 1000 rpm for 2 min at RT. Supernatants were transferred to a new 96-well (optiwhite) plate and ATP was measured using CellTiterGlo Luminescent Cell Viability Assay (Promega, Cat.no G7570) according to manufacturer's instructions. All steps were performed with ice-cold PBS and in the dark.

[4] = tested on: MDA-MB-231 cells; assay: Extracellular ATP release in vitro (CellTiterGlo); format: cell-based, human; conditions: 48 hr
Method: as §2, §3

[5] = tested on: LCLC-103H cells; assay: HMGB1 secretion in vitro (ELISA); format: cell-based, human; conditions: 48 hrs; ADC 2 μg/mL, MMAE 10 or 50 nM, paclitaxel 1 μM
Method: (§4) MDA-MB-231 or LCLC-103H cells were seeded in quadruplicate at 125,000 cells per well (MDA-MB-231) or 25,000 cells/well (LCLC-103H) in 24-well plates and grown 3-4 hrs at 37° C. Subsequently, IgG1-AXL-107-vcMMAE (2 μg/mL), free monomethyl auristatin E (MMAE; 10 or 50 nM), paclitaxel (1 μM), or isotype control ADC (IgG1-b12-vcMMAE; 2 μg/mL) were added to the wells and plates were incubated for 48 hrs at 37° C. After incubation cells were pelleted at 1000 rpm for 3 min at RT and supernatants were transferred to a new 96-wells plate. HMGB1 was measured in the supernatant using a HMGB1-specific ELISA kit (IBL, Cat.no ST51011) according to manufacturer's instructions.

[6] = tested on: MDA-MB-231 cells; assay: HMGB1 secretion in vitro (ELISA); format: cell-based, human; conditions: 48 hrs; ADC 2 μg/mL, MMAE 10 or 50 nM, paclitaxel 1 μM
Method: as §4

[7] = tested on: BLM human melanoma cell line-derived xenograft; assay: BLM melanoma xenograft model with MART-1-specific human T cells; format: in vivo, mice; conditions: ADC single dose 4 mg/kg i.v. with control or MART-1 T cells; anti-PD1 5 mg/kg weekly i.p. with MART-1 T cells and control ADC
Method: (§5) The anti-tumor activity of IgG1-AXL-107-vcMMAE in combination with anti-PD1 (pembrolizumab) was evaluated in the BLM human melanoma cell line-derived xenograft model in mice, which systemically received human T-cells that were engineered to express a melanoma-specific T-cell receptor (TCR) against MART-1. Before inoculation of mice with BLM cells, the BLM cells were transduced with the antigen (MART-1) as well as the correct HLA haplotype (HLA-A2) in order for the MART-1-specific T cells to recognize the tumor cells.
Melanoma cell line BLM was cultured in DMEM (Gibco), with fetal bovine serum (Sigma), 100 U/mL penicillin (Gibco) and 0.1 mg/mL streptomycin (Gibco) under standard conditions, and was regularly confirmed to be mycoplasma-free by PCR. […]
(§6) 8-14 week old male and female NOD-SCID Gamma (NSGTM) mice (bred in-house at the Netherlands Cancer Institute (NKI), Amsterdam, The Netherlands) were subcutaneously injected in the right flank with 1×10^6 BLM tumor cells. Tumors were measured three times per week with a caliper, and when tumors were 100 mm3 (after 7 days) the animals were randomized over the following treatment groups: • 1. […]
(§7) Tumor volumes were measured 3 times per week by an independent animal technician in a blinded fashion. Tumor volume was calculated as follows: […]. […]

[8] = tested on: LCLC-103H NSCLC cell line-derived xenograft; assay: LCLC-103H NSCLC xenograft model with MART-1-specific human T cells; format: in vivo, mice; conditions: ADC 1 mg/kg weekly i.v. with control T cells; anti-PD1 5 mg/kg weekly i.p. with MART-1 T cells and control ADC
Method: as §5, with “LCLC-103H NSCLC” for “BLM human melanoma”, “specific” for “melanoma-specific”, “LCLC-103H” for “BLM”
as §6, with “50” for “100”, “16 days), mice” for “7 days) the animals”, “1. Control T cells+Control ADC (n=7) • 2. MART-1 T cells+Control ADC (n=7) • 3. MART-1 T cells+Control ADC+anti-PD1 (n=7) • 4. Control T cells+IgG1-AXL-107-vcMMAE (n=11) • 5. MART-1 T cells+IgG1-AXL-107-vcMMAE (n=11) • 6. MART-1 T cells+IgG1-AXL-107-vcMMAE+anti-PD1 (n=11)” for “1.”
as §7

[9] = target: mouse Axl (Mus musculus, UniProt Q00993); assay: Binding to mouse Axl
[10] = tested on: LXFA 526; conditions: 4 mg/kg i.v.; Boshuizen et al, Nature Med 2018; cited from earlier work
[11] = tested on: LXFA 677; conditions: 4 mg/kg i.v.; Boshuizen et al, Nature Med 2018; cited from earlier work
[12] = hypotonic conditions (70% PBS), ADCs 2 μg/mL, MMAE 50 nM, paclitaxel 1 μM

Chain of mouse Axl (Q00993 19-888): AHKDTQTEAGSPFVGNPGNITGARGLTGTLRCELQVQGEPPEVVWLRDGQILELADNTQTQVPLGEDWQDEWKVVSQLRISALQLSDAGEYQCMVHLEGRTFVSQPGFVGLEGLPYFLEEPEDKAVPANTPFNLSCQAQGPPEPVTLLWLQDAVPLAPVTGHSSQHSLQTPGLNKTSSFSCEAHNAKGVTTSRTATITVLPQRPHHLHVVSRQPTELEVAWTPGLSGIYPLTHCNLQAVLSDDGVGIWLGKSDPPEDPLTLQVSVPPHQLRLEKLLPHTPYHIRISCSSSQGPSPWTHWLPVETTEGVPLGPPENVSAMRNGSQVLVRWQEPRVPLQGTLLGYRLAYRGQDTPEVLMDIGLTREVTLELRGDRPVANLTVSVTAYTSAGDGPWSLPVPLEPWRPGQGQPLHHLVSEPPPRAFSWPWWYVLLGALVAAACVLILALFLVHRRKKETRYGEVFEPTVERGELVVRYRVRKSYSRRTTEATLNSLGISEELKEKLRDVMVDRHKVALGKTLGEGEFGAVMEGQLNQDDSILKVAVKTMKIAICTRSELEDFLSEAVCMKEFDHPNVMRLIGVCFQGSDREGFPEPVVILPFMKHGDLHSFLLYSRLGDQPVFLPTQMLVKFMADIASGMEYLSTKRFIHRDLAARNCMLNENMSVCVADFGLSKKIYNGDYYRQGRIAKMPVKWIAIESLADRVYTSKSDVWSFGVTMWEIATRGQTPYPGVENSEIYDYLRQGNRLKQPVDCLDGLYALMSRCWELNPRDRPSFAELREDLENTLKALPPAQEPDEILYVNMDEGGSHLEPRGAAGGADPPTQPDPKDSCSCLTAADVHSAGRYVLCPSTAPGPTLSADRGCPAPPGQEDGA

Row | Compound | cell surface expression of calreticulin (MFI) compared to untreated cells [1] | percentage of calreticulin positive cells [1] | cell surface expression of calreticulin (MFI) compared to untreated cells [2] | percentage of calreticulin positive cells [2] | ATP release compared to untreated cells [3] | ATP release compared to untreated cells ([4]; 100% PBS, 10 nM MMAE) | ATP release compared to untreated cells ([4]; hypotonic conditions (70% PBS), 10 nM MMAE) | ATP release compared to untreated cells [4, 12] | HMGB1 secretion compared to untreated cells [5] | HMGB1 secretion compared to untreated cells [6] | anti-tumor effect (tumor size) [7] | anti-tumor effect (tumor size) [8] | binding to mouse Axl [9] | anti-tumor activity / tumor growth [10] | anti-tumor activity / tumor growth [11]
1 | CC[C@H](C)[C@@H]([C@@H](CC(=O)N1CCC[C@H]1[C@H](OC)[C@@H](C)C(=O)N[C@H](C)[C@@H](O)c1ccccc1)OC)N(C)C(=O)[C@@H](NC(=O)[C@@H](NC)C(C)C)C(C)C [MMAE, monomethyl auristatin E] (H-[NMeV]V[Dil][Dolaproine]-X1) | comparable | increased | comparable | increased | comparable levels | about 10 fold | ~26 fold | about 10 fold | similar | around 4 fold |  |  |  |  | 
2 | CC(=O)O[C@H]1C(=O)[C@@]2(C)[C@H]([C@H](OC(=O)c3ccccc3)[C@]3(O)C[C@H](OC(=O)[C@H](O)[C@@H](NC(=O)c4ccccc4)c4ccccc4)C(C)=C1C3(C)C)[C@]1(OC(C)=O)CO[C@@H]1C[C@@H]2O [paclitaxel] | comparable | increased | comparable | increased | comparable levels |  |  | ~15 fold | about 11 fold | around 4 fold |  |  |  |  | 
3 | IgG1-AXL-107-vcMMAE: anti-human AXL IgG1-kappa antibody conjugated, on an average of 4 cysteinyl, to MMAE via cleavable mc-val-cit-PABC linker | about 1.4 fold | increased | about 3.5 fold | increased | about 3 fold |  |  | ~7 fold | about 7.5 fold | about 1.6 fold | induced tumor regression | some tumor growth inhibition | does not bind | strong anti-tumor activity | strong anti-tumor activity
4 | anti-PD1: anti-PD1 antibody pembrolizumab (KEYTRUDA, MSD), obtained from SelleckChem |  |  |  |  |  |  |  |  |  |  | no enhanced tumor growth inhibition | no enhanced tumor growth inhibition |  |  | 
